Measured values as given in patent US6503698B1, “Cryopreservation of swine embryos” (The United States of America as represented by the …, priority 2000, dated 2003).
Marks after values point to notes of the source that are not given here.

Test system: swine embryos
Test: Progressive development in vitro of swine embryos after cryopreservation by vitrification under the influence of microfilament stabilizer cytochalasin-b
Assay type: cell-based
Settings: for % dev (progressive development in vitro after vitrification) / dev (number of embryos developed in vitro after vitrification): + cytochalasin-b
Method: Cyto-b is added to the medium for MF depolymerization. Studies were carried out which documented microfilament (MF) alterations during swine embryo vitrification (Dobrinsky et al. 2000, supra).
Developmental appraisals of the centrifuged cryopreserved embryos were carried out both in vitro and in vivo. For in vitro studies, morulae/blastocysts were cultured for 72 hours post-treatment. After culture, embryos were morphologically evaluated for their developmental progression. […] Since all morulae would have to develop into
Embryos were vitrified as described by Dobrinsky and Johnson (supra) in vitrification medium [6.5M glycerol, 6% bovine serum albumin-V (BSA-V; Sigma Chemical Co., St. Louis, Mo.)]. Prior to cryopreservation, for microfilament depolymerization, embryos were incubated at 39° C. in 5% CO2 and air, 95% humidity for 30-45 min in culture medium containing 7.5 μg/ml cyto-b (Sigma Chemical co., supra; stock=5 mg/ml 95% food grade EtOH). Following incubation in cyto-b, embryos were removed from culture and washed 3 times in 2 ml handling medium with cyto-b for 5 min and then equilibrated in 1 ml handling medium containing 6% BSA-V and cyto-b for 5 min. Embryos were then washed in vitrification equilibration medium (25% glycerol v/v, 6% BSA-V) containing cyto-b, then placed in 20 μl of vitrification equilibration medium containing cyto-b in a 1.5-ml microcentrifuge tube. The tube was placed and counterbalanced in an Eppendorf 5415 microcentrifuge and centrifuged for 13 min at 13,000 rpm. During centrifugation, embryos were dehydrated and equilibrated with glycerol. Total time in vitrification equilibration medium was about 20 min, including the centrifugation time.

For `C=C1[C@@H](C)[C@H]2[C@H](Cc3ccccc3)NC(=O)[C@]23OC(=O)/C=C/[C@H](O)CCC[C@@H](C)C/C=C/[C@H]3[C@@H]1O` [Cytochalasin-b], the “% dev (progressive development in vitro after vitrification)” value (from here on “% dev”) (HB1 = hatched blastocysts <400 μm diameter) was 90^c;z %, the “dev (number of embryos developed in vitro after vitrification)” value (HB1 = hatched blastocysts <400 μm diameter, n 48) was 43 and the “% dev” value (HB2 = hatched blastocysts >400 μm diameter) was 41%. The “dev (number of embryos developed in vitro after vitrification)” value (HB2 = hatched blastocysts >400 μm diameter, n 22) was 9, the “% dev” value (MB = morulae/early blastocysts) was 6^a % and the “dev (number of embryos developed in vitro after vitrification)” value (MB = morulae/early blastocysts, n 17) was 1. The “% dev” value (XB = expanded blastocysts) was 60^b;z %, the “dev (number of embryos developed in vitro after vitrification)” value (XB = expanded blastocysts, n 25) was 15 and the “survival and development of expanded and hatched blastocysts after vitrification” value (expanded and hatched blastocysts, versus control without cyto-b) was “significantly (p<0.05) improved survival and development”. The “morula/early blastocyst viability after vitrification” value (morulae/early blastocysts, versus control without cyto-b) was “did not appear to improve”.
